Data as given in the supplement of paper PMC10307832.

How the values were obtained:
Assay in all cases: relative viability (nuclei count vs DMSO), 5 days (fraction); higher = more cells survive
[1] = compound: CN1CCC(CNc2ccc3ncc(-c4cccc(OC(F)(F)F)c4)n3n2)CC1 [SGI-1776] + O=C(CCCCCCC(=O)Nc1ccccc1)NO [Vorinostat] (partner 1 µM)
How it was run: (§1)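 Lung cancer cell lines in 1536-well plates were dosed by pin tool the day after seeding, either with one drug alone or with a fixed anchor-drug dose plus five library-drug doses (not always all listed) in √10 steps. After 5 days, cells were fixed and their nuclei stained in one step (final 0.05% Triton X-100, 1% formaldehyde, 1 ug/ml Hoechst), then counted on 4× images. Relative viability is the nuclei count in treated wells divided by that in vehicle wells. Values are medians of duplicate plates.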

[2] = compound: Nc1ccccc1NC(=O)c1ccc(CNC(=O)OCc2cccnc2)cc1 [Entinostat] + Cc1nc(Nc2ncc(C(=O)Nc3c(C)cccc3Cl)s2)cc(N2CCN(CCO)CC2)n1 [Dasatinib] (partner 0.075 µM)
How it was run: as §1

[3] = compound: C1COCCN1C2=NC(=NC3=C2OC4=C3C=CC=N4)C5=CC(=CC=C5)NC(=O)C6=CN=C(C=C6)N + Cc1nc(NC(=O)N2CCC[C@H]2C(N)=O)sc1-c1ccnc(C(C)(C)C(F)(F)F)c1 [Alpelisib] (partner 2 µM)
How it was run: as §1

[4] = compound: CN1CCC(CNc2ccc3ncc(-c4cccc(OC(F)(F)F)c4)n3n2)CC1 [SGI-1776] + CC(=O)Nc1cccc(-n2c(=O)n(C3CC3)c(=O)c3c(Nc4ccc(I)cc4F)n(C)c(=O)c(C)c32)c1 [Trametinib] (partner 0.02 µM)
How it was run: as §1

| Cell Line | relative viability ([1]; first compound 0.08 µM) | relative viability ([1]; first compound 0.8 µM) | relative viability ([1]; first compound 2.53 µM) | relative viability ([1]; first compound 8 µM) | relative viability ([2]; first compound 0.02 µM) | relative viability ([2]; first compound 0.06325 µM) | relative viability ([2]; first compound 0.2 µM) | relative viability ([2]; first compound 0.6325 µM) | relative viability ([2]; first compound 2 µM) | relative viability ([3]; first compound 0.02 µM) | relative viability ([3]; first compound 0.06325 µM) | relative viability ([3]; first compound 0.2 µM) | relative viability ([3]; first compound 0.6325 µM) | relative viability ([3]; first compound 2 µM) | relative viability ([4]; first compound 0.08 µM) | relative viability ([4]; first compound 0.8 µM) | relative viability ([4]; first compound 2.53 µM) | relative viability ([4]; first compound 8 µM) |
| --- | --- | --- | --- | --- | --- | --- | --- | --- | --- | --- | --- | --- | --- | --- | --- | --- | --- | --- |
| LOU-NH91 | 0.976 | 1 | 0.845 | 0.644 | 0.565 | 0.607 | 0.574 | 0.566 | 0.509 | 0.696 | 0.728 | 0.768 | 0.749 | 0.667 | 0.808 | 0.766 | 0.806 | 0.695 |
| NCI-H1355 | 0.692 | 0.709 | 0.651 | 0.551 | 0.69 | 0.687 | 0.583 | 0.429 | 0.306 | 0.833 | 0.933 | 0.858 | 0.747 | 0.759 | 0.444 | 0.408 | 0.408 | 0.41 |
| NCI-H322M | 0.882 | 0.926 | 0.846 | 0.707 | 0.271 | 0.274 | 0.275 | 0.298 | 0.313 | 0.81 | 0.773 | 0.768 | 0.638 | 0.665 | 0.524 | 0.506 | 0.485 | 0.487 |
| NCI-H1395 | 0.887 | 0.755 | 0.558 | 0.47 | 0.477 | 0.425 | 0.42 | 0.286 | 0.405 | 1.03 | 1.03 | 0.998 | 1.45 | 0.89 | 1.16 | 0.984 | 0.951 | 0.887 |
| NCI-H2023 | 0.795 | 0.8 | 0.713 | 0.463 | 0.55 | 0.439 | 0.326 | 0.135 | 0.0809 | 0.68 | 0.621 | 0.544 | 0.438 | 0.359 | 0.539 | 0.508 | 0.491 | 0.312 |
| NCI-H1666 | 0.999 | 0.971 | 0.957 | 1.01 | 0.751 | 0.781 | 0.833 | 0.595 | 0.455 | 1.02 | 0.906 | 0.794 | 0.775 | 0.549 | 0.95 | 0.846 | 0.935 | 0.842 |
| HARA | 0.497 | 0.515 | 0.559 | 0.438 | 0.299 | 0.256 | 0.256 | 0.273 | 0.168 | 0.927 | 0.946 | 0.922 | 0.743 | 0.436 | 0.652 | 0.74 | 0.604 | 0.732 |
| NCI-H1944 | 0.584 | 0.646 | 0.553 | 0.477 | 0.226 | 0.205 | 0.199 | 0.17 | 0.175 | 0.894 | 0.705 | 0.851 | 0.782 | 0.731 | 0.389 | 0.408 | 0.426 | 0.378 |
| NCI-H2405 | 1.06 | 1.16 | 0.896 | 0.748 | 0.239 | 0.208 | 0.217 | 0.182 | 0.129 | 0.664 | 0.716 | 0.803 | 0.815 | 0.622 | 0.679 | 0.595 | 0.568 | 0.398 |
| 201T | 0.977 | 1.01 | 0.98 | 0.946 | 0.651 | 0.559 | 0.58 | 0.421 | 0.313 | 1.03 | 1.03 | 0.926 | 0.96 | 0.966 | 0.702 | 0.77 | 0.711 | 0.702 |
| PC-3 [JPC-3] | 0.853 | 1.04 | 0.756 | 0.421 | 1.07 | 0.87 | 0.95 | 0.666 | 0.405 | 0.976 | 1.05 | 1.1 | 0.991 | 0.829 | 0.757 | 0.73 | 0.656 | 0.462 |
| Calu-6 | – | – | – | – | – | – | – | – | – | 1.09 | 0.979 | 0.882 | 0.936 | 0.721 | – | – | – | – |
| NCI-H2342 | 0.78 | 0.723 | 0.707 | 0.799 | 0.305 | 0.319 | 0.291 | 0.274 | 0.278 | – | – | – | – | – | 0.891 | 0.779 | 0.809 | 0.769 |
| ChaGo-K-1 | 0.788 | 0.825 | 0.797 | 0.73 | 0.709 | 0.554 | 0.671 | 0.526 | 0.553 | – | – | – | – | – | 0.878 | 0.865 | 0.874 | 0.909 |
| NCI-H1563 | – | – | – | – | 0.465 | 0.48 | 0.438 | 0.461 | 0.42 | 0.886 | 0.871 | 0.855 | 0.843 | 0.729 | – | – | – | – |
| IA-LM | 0.956 | 0.914 | 0.922 | 0.926 | – | – | – | – | – | – | 0.853 | 0.582 | 0.609 | 0.43 | – | – | – | – |
| NCI-H1299 | – | – | – | – | – | – | – | – | – | 1.1 | 1.11 | 1.09 | 1.06 | 0.857 | – | – | – | – |
| NCI-H1623 | – | – | – | – | 0.644 | 0.525 | 0.478 | 0.412 | 0.366 | – | – | – | – | – | – | – | – | – |
| HCC-44 | 1.16 | 1.05 | 1.12 | 1.01 | – | – | – | – | – | 0.803 | 0.879 | 1.04 | 0.807 | 0.499 | 1.04 | 1.05 | 0.988 | 1.09 |
| SW 900 | 0.506 | 0.752 | 0.651 | 0.361 | 0.795 | 0.589 | 0.661 | 0.444 | 0.248 | – | – | – | – | – | 0.855 | 0.76 | 0.653 | 0.724 |
| ABC-1 | 1.02 | 1.14 | 1.01 | 0.702 | 0.47 | 0.751 | 0.663 | 0.51 | 0.486 | 1.03 | 1.05 | 0.981 | 0.971 | 0.695 | – | – | – | – |
| NCI-H1648 | 0.476 | 0.555 | 0.294 | 0.39 | – | – | – | – | – | – | – | – | – | – | 0.397 | 0.441 | 0.415 | 0.398 |
| A549 | – | – | – | – | – | – | – | – | – | 0.64 | 0.793 | 0.644 | 0.63 | 0.346 | – | – | – | – |
| NCI-H1792 | – | – | – | – | 0.692 | 0.802 | 0.825 | 0.452 | 0.402 | 0.55 | 0.717 | 0.768 | 0.351 | 0.358 | 0.446 | 0.446 | 0.437 | 0.324 |
